Substitutions are numbered along the chain they refer to.
Columns and labels:
Experiment in all cases: thermal denaturation, tryptophan fluorescence
[1] = target: T1, human guanylate binding protein-1 (hGBP1, wild type whGBP1) (Homo sapiens, UniProt P32455); conditions: 0.5 µM protein, 20 mM Tris-HCl pH 7.5, 100 mM KCl, 5 mM MgCl2, Tm of free protein in the 2nd table, row 6
T1 construct: gene GBP1; purified as in earlier work
T1 sequence (P32455 1-592): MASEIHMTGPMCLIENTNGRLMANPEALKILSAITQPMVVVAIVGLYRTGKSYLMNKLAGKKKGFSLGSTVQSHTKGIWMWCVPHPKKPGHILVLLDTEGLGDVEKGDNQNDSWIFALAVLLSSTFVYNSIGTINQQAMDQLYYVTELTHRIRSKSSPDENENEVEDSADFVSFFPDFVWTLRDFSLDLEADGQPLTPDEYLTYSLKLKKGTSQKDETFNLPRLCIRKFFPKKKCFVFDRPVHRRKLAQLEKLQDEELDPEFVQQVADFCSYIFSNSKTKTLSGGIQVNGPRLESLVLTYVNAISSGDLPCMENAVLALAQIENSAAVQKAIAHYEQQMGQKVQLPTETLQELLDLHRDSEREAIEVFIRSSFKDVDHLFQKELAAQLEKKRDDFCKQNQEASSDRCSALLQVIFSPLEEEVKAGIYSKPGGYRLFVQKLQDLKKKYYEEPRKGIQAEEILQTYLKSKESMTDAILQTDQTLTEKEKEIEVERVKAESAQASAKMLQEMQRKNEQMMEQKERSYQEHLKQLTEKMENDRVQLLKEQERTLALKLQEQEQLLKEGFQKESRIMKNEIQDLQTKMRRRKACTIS
Source text: thermal denaturation, tryptophan fluorescence on human guanylate binding protein-1 (hGBP1, wild type whGBP1)

[2] = target: T2, human guanylate binding protein-1 (hGBP1, wild type whGBP1) (Homo sapiens, UniProt P32455, E313A); conditions: 37 °C; 5 mM MgCl2, 100 mM KCl, pH 7.5; ΔCp assumed as in wild type
T2 construct: gene GBP1; purified as in earlier work
T2 sequence (P32455 1-592 E313A): T1 sequence (P32455 1-592) with E313A

[3] = target: T3, human guanylate binding protein-1 (hGBP1, wild type whGBP1) (Homo sapiens, UniProt P32455, S157A); conditions: 37 °C; 5 mM MgCl2, 100 mM KCl, pH 7.5; ΔCp assumed as in wild type
T3 construct: gene GBP1; purified as in earlier work
T3 sequence (P32455 1-592 S157A): T1 sequence (P32455 1-592) with S157A

SMILES	Heat-induced unfolding / T m / (K) ([1]; 500 µM GDP)	difference in ΔG D between analogue free and bound protein [2] [kcal/mol]	Heat-induced unfolding / T m / (K) ([1]; 100 µM GppNHp)	difference in ΔG D between analogue free and bound protein [3] [kcal/mol]
Nc1nc2c(ncn2[C@@H]2O[C@H](COP(=O)(O)OP(=O)(O)O)[C@@H](O)[C@H]2O)c(=O)[nH]1 [GDP]	319.9 ± 0.4	–	–	–
Nc1nc2c(ncn2[C@@H]2O[C@H](COP(=O)(O)OP(=O)(O)NP(=O)(O)O)[C@@H](O)[C@H]2O)c(=O)[nH]1 [GppNHp]	–	2.4	325.2 ± 0.2	0.9
